pIC50: −log10 of the molar value.
Key:
[1] = system: ITK phosphorylation of its substrate, PLCγ1, at Y783; assay: ITK target modulation assay (PLCγ1 Y783 phosphorylation, anti-CD3 stimulated Jurkat T cells); assay type: cell-based; settings: Homo sapiens, Jurkat, anti-CD3 Dynabeads stimulation, read-out: PLC-γ Inh. IC50
How it was run: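 Jurkat cells (400,000/well) were preincubated with compound for 1 h at 37 °C (0.1% DMSO final), then stimulated with anti-CD3 Dynabeads (bead:cell 2:1). Hypotonic lysates were dot-blotted and probed for phospho-PLCγ1 Y783 and total PLCγ1, with quantification by dual-channel infrared imaging.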

ITK = ITK (Homo sapiens (Human), UniProt Q08881); assay: ITK inhibitor binding potency (LanthaScreen competitive binding assay); settings: read-out: ITK Inh. IC50
Sequence of ITK (Q08881 whole entry): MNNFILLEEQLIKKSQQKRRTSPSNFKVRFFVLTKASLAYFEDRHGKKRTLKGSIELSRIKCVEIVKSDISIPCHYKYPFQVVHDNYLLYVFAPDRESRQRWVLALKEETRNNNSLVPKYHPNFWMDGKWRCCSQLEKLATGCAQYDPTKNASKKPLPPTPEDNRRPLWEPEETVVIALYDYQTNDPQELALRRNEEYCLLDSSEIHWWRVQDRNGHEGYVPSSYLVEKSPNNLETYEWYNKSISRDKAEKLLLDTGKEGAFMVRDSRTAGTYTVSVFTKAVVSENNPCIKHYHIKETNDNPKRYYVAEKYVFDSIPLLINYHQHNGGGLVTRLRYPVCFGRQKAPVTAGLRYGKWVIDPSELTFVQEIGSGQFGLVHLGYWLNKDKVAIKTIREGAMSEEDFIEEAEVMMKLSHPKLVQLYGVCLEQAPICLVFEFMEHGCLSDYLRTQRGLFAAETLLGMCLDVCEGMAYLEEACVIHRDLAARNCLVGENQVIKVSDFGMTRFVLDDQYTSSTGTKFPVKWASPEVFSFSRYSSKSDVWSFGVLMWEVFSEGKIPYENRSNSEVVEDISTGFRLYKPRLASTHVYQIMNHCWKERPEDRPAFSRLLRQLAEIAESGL
How it was run: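 TR-FRET tracer displacement: 10 nM GST-ITK, 2 nM Eu-anti-GST, 50 nM tracer-236 in HEPES pH 7.5, MgCl2, 2% DMSO; 11 points, 20 µM–0.34 nM. Run with or without 2 h compound–ITK preincubation before tracer; IC50 by 4-parameter fit of emission ratio.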

[2] = system: JAK1/3 phosphorylation of its substrate, STAT5, at Y694; assay: JAK1/3 target modulation assay (IL-2 stimulated STAT5 Y694 phosphorylation in PBMC); assay type: cell-based; settings: Homo sapiens, PBMC, Primary human peripheral blood mononuclear cells, IL-2 25 ng/mL; read-out: IL2-STAT5 Inh. IC50
How it was run: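 Human PBMCs preincubated with compound for 1 h at 37 °C, then stimulated with IL-2 (25 ng/mL final) for 5 min. Cells were lysed and phospho-STAT5a,b (Y694) measured by MSD electrochemiluminescence immunoassay, single-plex or multiplex with total STAT5a,b.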

JAK3 = JAK3 (Homo sapiens (Human), UniProt P52333); assay: JAK3 enzyme activity assay (Caliper mobility shift); assay type: biochemical; settings: ATP at Km level; read-out: JAK3 Inh. IC50
Sequence of JAK3 (P52333 781-1124): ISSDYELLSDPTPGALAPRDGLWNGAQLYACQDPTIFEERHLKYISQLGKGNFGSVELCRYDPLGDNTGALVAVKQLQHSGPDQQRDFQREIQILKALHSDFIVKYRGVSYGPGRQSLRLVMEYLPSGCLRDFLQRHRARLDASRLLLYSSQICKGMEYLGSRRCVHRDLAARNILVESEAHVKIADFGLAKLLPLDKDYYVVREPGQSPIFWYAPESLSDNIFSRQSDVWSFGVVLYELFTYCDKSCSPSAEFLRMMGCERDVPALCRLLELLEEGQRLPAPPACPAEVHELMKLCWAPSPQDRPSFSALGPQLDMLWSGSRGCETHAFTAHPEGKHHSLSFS
How it was run: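 Caliper mobility-shift assay with 2.5 nM JAK3, […] and […] (Km level) in 20 mM HEPES pH 7.5, 10 mM MgCl2, 0.01% BSA, 0.0005% Tween-20, 2% DMSO. 11-point dose-response from […] 0.34 nM; IC50 by 4-parameter logistic fit of product/substrate signal.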

Row | pIC50 [1] | pIC50 (ITK) | pIC50 [2] | pIC50 (JAK3) | Structure (SMILES)
1 | < 6.00 | < 7.00 | < 6.00 | < 7.00 | C=CC(=O)N1C[C@H](Nc2ncnc3[nH]cc([C@H]4CC4(F)F)c23)CC[C@@H]1C(C)C (single isomer, unassigned) [Example 63]
2 | ≥ 7.00 | ≥ 8.00 | ≥ 7.00 | ≥ 8.00 | C=CC(=O)N1C[C@H](Nc2ncnc3[nH]cc([C@@H]4CC4(F)F)c23)CC[C@@H]1C (single isomer, unassigned) [Example 48]
3 | 6.00 to 7.00 | ≥ 8.00 | 6.00 to 7.00 | 7.00 to 8.00 | C=CC(=O)N1CCC[C@@H](Nc2ccnc3[nH]cc(C(=O)C4CCCC4)c23)C1 [Example 13, (R)-1-(3-((3-(cyclopentanecarbonyl)-1H-pyrrolo[2,3-b]pyridin-4-yl)amino)piperidin-1-yl)prop-2-en-1-one]
4 | < 6.00 | < 7.00 | < 6.00 | < 7.00 | C=C(C)C(=O)N1C[C@H](Nc2ncnc3[nH]cc([C@@H]4CC4(F)F)c23)CC[C@@H]1C (single isomer, unassigned) [Example 71]
5 | 6.00 to 7.00 | 7.00 to 8.00 | ≥ 7.00 | ≥ 8.00 | C=CC(=O)N1CCC(Nc2cnc3[nH]cc(C(=O)C4CCC4)c3n2)CC1 [Example 100, 1-(4-((7-(cyclobutanecarbonyl)-5H-pyrrolo[2,3-b]pyrazin-2-yl)amino)piperidin-1-yl)prop-2-en-1-one]
6 | 6.00 to 7.00 | ≥ 8.00 | 6.00 to 7.00 | ≥ 8.00 | C=CC(=O)N1C[C@H](Nc2ncnc3[nH]cc([C@H]4C[C@@H]4COC)c23)CC[C@@H]1C (single isomer, unassigned) [Example 46]
7 | 6.00 to 7.00 | ≥ 8.00 | 6.00 to 7.00 | ≥ 8.00 | C=CC(=O)N1CCC[C@@H](Nc2ccnc3[nH]cc(C(=O)C4(C)CC4)c23)C1 [Example 14, (R)-1-(3-((3-(1-methylcyclopropane-1-carbonyl)-1H-pyrrolo[2,3-b]pyridin-4-yl)amino)piperidin-1-yl)prop-2-en-1-one]
8 | ≥ 7.00 | ≥ 8.00 | 6.00 to 7.00 | ≥ 8.00 | C=CC(=O)N1C[C@@H](Nc2ncnc3[nH]cc([C@H]4CC4(F)F)c23)CC[C@H]1C(C)C (single isomer, unassigned) [Example 65]
9 | 6.00 to 7.00 | ≥ 8.00 | 6.00 to 7.00 | ≥ 8.00 | C=CC(=O)N1C[C@H](Nc2ccnc3[nH]cc([C@@H]4C[C@H]4COC)c23)CC[C@@H]1C (single isomer, unassigned) [Example 77]
10 | ≥ 7.00 | ≥ 8.00 | ≥ 7.00 | ≥ 8.00 | C=CC(=O)N1C[C@H](Nc2ccnc3[nH]cc([C@H]4CC4(F)F)c23)CC[C@@H]1C (single isomer, unassigned) [Example 73]
11 | < 6.00 | < 7.00 | < 6.00 | < 7.00 | C=CC(=O)N1CCC[C@@H](Nc2ncnc3[nH]cc(C(C)C4CC4)c23)C1 (stereo partly drawn) [Example 21, 1-((3R)-3-((5-(1-cyclopropylethyl)-7H-pyrrolo[2,3-d]pyrimidin-4-yl)amino)piperidin-1-yl)prop-2-en-1-one]
12 | 6.00 to 7.00 | ≥ 8.00 | < 6.00 | 7.00 to 8.00 | C[C@H]1CC[C@@H](Nc2ncnc3[nH]cc([C@@H]4CC4(F)F)c23)CN1C(=O)/C=C/CN(C)C (single isomer, unassigned) [Example 61]
13 | < 6.00 | 7.00 to 8.00 | < 6.00 | < 7.00 | C=CC(=O)N1CCC[C@@H](Nc2ncnc3[nH]cc(C(=O)[C@H]4CCOC4)c23)C1 (single isomer, unassigned) [Example 11]
14 | ≥ 7.00 | ≥ 8.00 | 6.00 to 7.00 | ≥ 8.00 | C=CC(=O)N1C[C@H](Nc2ncnc3[nH]cc(CC4CC4)c23)CC[C@@H]1C [Example 24, 1-((2S,5R)-5-((5-(cyclopropylmethyl)-7H-pyrrolo[2,3-d]pyrimidin-4-yl)amino)-2-methylpiperidin-1-yl)prop-2-en-1-one]
15 | ≥ 7.00 | ≥ 8.00 | ≥ 7.00 | ≥ 8.00 | C=CC(=O)N1C[C@H](Nc2ncnc3[nH]cc([C@@H]4C[C@H]4COC)c23)CC[C@@H]1C (single isomer, unassigned) [Example 45]
16 | 6.00 to 7.00 | ≥ 8.00 | 6.00 to 7.00 | ≥ 8.00 | C=CC(=O)N1CCC[C@@H](Nc2ccnc3[nH]cc(C(=O)C4CC4)c23)C1 [Example 9, (R)-1-(3-((3-(cyclopropanecarbonyl)-1H-pyrrolo[2,3-b]pyridin-4-yl)amino)piperidin-1-yl)prop-2-en-1-one]
